According to patent US10494379B2, “6-oxa-3,9,15-triaza-bicyclo[9.3.1]pentadeca-1(14),11(15),12-triene derivatives based compounds and their application as ligands of essential metal ion based MRI and 52MN based PET contrast agents” (DEBRECENI EGYETEM, priority 2015, dated 2019):

Assays:
[1] = literature values, 'under the same conditions'; cited from earlier work
[2] = cited from earlier work
[3] = Equilibrium study: protonation constants and total basicity of the ligands; type: physicochemical; conditions: 25° C., 0.15M NaCl
Method: (§1) During the physico-chemical studies of tOPC2A, tOPC2M^Pyp and tOPC2M^Pro compounds prepared according to Example 1, 2, and 5, their protonation constants, as well as equilibrium behaviour and kinetic inertness of their Mn(II) complexes was studied in detail, and the characteristic relaxivity values of the complexes were determined in the presence and absence of HSA (Human Serum Albumin), at 25 and 37° C. and physiological pH. All studies were performed in the presence of 0.15 M NaCl, the same concentration as that of the electrolyte under physiological conditions.
(§2) The results of equilibrium study are summarized in Table 1, in addition to the protonation constants, total basicity of ligands and stability constants of their Mn(II) complexes, the pMn value calculated for complexes are also represented in the table.

[4] = Equilibrium study: stability constants of Mn(II) complexes and calculated pMn; type: physicochemical; conditions: 25° C., 0.15M NaCl; for pMn: calculated from equilibrium constants at pH = 7.4 and cMn = cL = 10^−5 M
Method: as §1, §2
Based on the pMn values presented in Table 1 (calculated using the equilibrium constants at pH=7.4 and cMn=cL=10^−5 M), it can be concluded that the studied Mn(II) complexes are formed in 100% at physiological pH, which is an essential aspect of the practical use.

Row | SMILES | r1 (relaxivity) [1] [mM⁻¹ s⁻¹] | Gd(III) release at 37° C. relative to value calculated from experiments at 25° C. ([2]; 37° C. vs 25° C.) [fold] | Gd(III) ion released during in vivo dissociation ([2]; 37° C.) [%] | logK1 (protonation constant) [3] | logK2 (protonation constant) [3] | logK3 (protonation constant) [3] | ΣlogKi^H (total basicity) [3] | logKMnL (stability constant of Mn(II) complex) [4] | pMn [4] | logK4 (protonation constant) [3]
1 | CNC[C@H](O)[C@@H](O)[C@H](O)[C@H](O)CO.O=C([O-])CN1CCN(CC(=O)[O-])CCN(CC(=O)O)CCN(CC(=O)[O-])CC1.[Gd+3] [DOTAREM] | 3.83 | – | – | – | – | – | – | – | – | –
2 | CNC[C@H](O)[C@@H](O)[C@H](O)[C@H](O)CO.CNC[C@H](O)[C@@H](O)[C@H](O)[C@H](O)CO.O=C([O-])CN(CCN(CC(=O)[O-])CC(=O)O)CCN(CC(=O)[O-])CC(=O)O.[Gd+3] [MAGNEVIST] | 4.02 | 4.4 | 2.2 | – | – | – | – | – | – | –
3 | O=C(O)CN1CCOCCN(CC(=O)O)Cc2cccc(n2)C1 [tOPC2A, 4-oxo-1,7-diaza-2,6-pyridinophane-diacetate] | – | – | – | 7.73(2) | 7.66(1) | 2.13(1) | 17.52 | 13.03(1) | 8.59 | –
4 | O=C(O)C1CCCN1C(=O)CN1CCOCCN(CC(=O)N2CCCC2C(=O)O)Cc2cccc(n2)C1 (stereo not shown) [tOPC2AM^Pro] | – | – | – | 7.37(3) | 5.14(4) | 3.26(4) | 18.17 | 10.03(1) | 7.37 | 2.40(4)
5 | O=C(CN1CCOCCN(CC(=O)N2CCCCC2)Cc2cccc(n2)C1)N1CCCCC1 [tOPC2AM^Pyp, 3,9-bis[2-oxo-2-(piperidin-1-yl)-ethyl]-6-oxa-3,9,15-triaza-bicyclo[9.3.1]pentadeca-1(14),11(15),12-triene] | – | – | – | 7.91(2) | 5.51(3) | – | 13.42 | 10.84(4) | 7.60 | –
